System: egg chorioallantoic membrane (CAM)
Assay: Ocular irritation assay (HET-CAM)
Parameters: species or system White Leghorn chicken eggs
Conditions: 100 mg/ml, CAM observed for 5 minutes
Source text: The HET-CAM is an alternative method to the Draize Rabbit Eye Test which mimics vascular changes in the chorioallantoic membrane, an analog for ocular conjunctiva, which can be used to determine the potential irritancy of a test substance. This method is based on that described in Hen's Egg Test-Chorioallantoic Membrane (HET-CAM) Test Method (ICCVAM-Recommended Test Method Protocol, NIH Publication No. 10-7553—Published 2010)
Fertilized white SPF (special pathogen free) White Leghorn chicken eggs were incubated at 37° C. and 60% humidity up to day 10. After determination of the viability of the embryo, a rectangular window was removed from the shell directly over the air cell and the egg membrane was carefully moistened with 2-3 ml 0.9% saline. After returning to the incubator for 30 minutes, the inner membrane was removed and the test substance was applied to the CAM membrane with a pipette. Eggs were observed continuously for 5 minutes for the appearance of lysis, hemorrhage and/or coagulation and an irritation score (IS) was determined following the ICCVAM-Recommended Test Method Protocol (NIH Publication No. 10-7553-Published 2010) guideline.

**Q.** With `O=S(=O)([O-])c1cc(O)ccc1O.[K+]` [potassium dobesilate] as the molecule, how does the HET-CAM irritation characterization read?
**A.** not irritating

**Q.** And the “HET-CAM lysis, haemorrhage or coagulation processes” value?
**A.** did not trigger any lysis, haemorrhage or coagulation processes

**Q.** For `CCNCC.O=S(=O)(O)c1cc(O)ccc1O` [etamsylate, diethylamine 2,5-dihydroxybenzenesulfonate], which HET-CAM irritation characterization is on record?
**A.** not irritating

**Q.** What about the “HET-CAM lysis, haemorrhage or coagulation processes” value of the same molecule?
**A.** did not trigger any lysis, haemorrhage or coagulation processes

— patent US20200390729A1, “OPHTHALMIC TOPICAL COMPOSITION COMPRISING DOBESILIC ACID FOR TREATING DISEASES OF THE POSTERIOR SEGMENT OF THE EYE” (LABORATORIOS SALVAT, S.A., priority 2017, published 2020)
